Results published in patent publication US12655173B2, “Hybrid amide derivatives of amphotericin B” (priority 2020, dated 2026).
≈ marks a conversion by molar mass, not a printed value.

Experiments:
Type in all cases: cell-based
Candida albicans = assay: MIC against yeasts; conditions: 15 isolates, Table 3A
Candida glabrata = assay: MIC against yeasts; conditions: Nakaseomyces glabratus; 5 isolates; Table 3A
Trichophyton rubrum = assay: MIC against yeasts (Table 3A); conditions: 3 isolates
[1] = tested on: Trichophyton mentagropytes; assay: MIC against yeasts (Table 3A); conditions: 3 isolates
Microsporum canis = assay: MIC against yeasts (Table 3A); conditions: 2 isolates

`C[C@@H]1[C@H](O)[C@@H](C)/C=C/C=C/C=C/C=C/C=C/C=C/C=C/[C@H](OC2O[C@H](C)[C@@H](O)[C@H](N)[C@@H]2O)C[C@@H]2O[C@](O)(C[C@@H](O)C[C@@H](O)[C@H](O)CC[C@@H](O)C[C@@H](O)CC(=O)O[C@H]1C)C[C@H](O)[C@H]2C(=O)O` (some centres unmarked) [AmB, Amphotericin B] was tested, and the MIC (Candida albicans) was 0.61 µM (≈ 0.564 µg/mL), the MIC (Candida glabrata) was 1.4 µM (≈ 1.29 µg/mL) and the MIC (Trichophyton rubrum) was 1.1 µM (≈ 1.02 µg/mL). For the same compound, the MIC [1] was 4 µM (≈ 3.7 µg/mL) and the MIC (Microsporum canis) was 0.56 µM (≈ 0.517 µg/mL).
